Like-named read-outs stand apart in the source and are kept apart here. Marks after values point to notes of the source that are not given here.
How the values were obtained:
[1] = test system: serum total bile acid (SBA); assay: Time to onset of activity of LUM001 on postprandial serum bile acids in dogs; type: in vivo, beagle dogs; settings: for Serum bile acids, mean: fed at 0 min
Experimental: LUM001 was dissolved in water at concentrations that required the administration of 0.2 ml/kg of solution. Solutions were placed into gelatin capsules, Torpac Inc., size 13 Batch 594, East Hanover N.J., and administered orally.
Male beagle dogs were obtained from Covance Research Products, Cumberland Va. or Marshall Farms USA, Inc., North Rose N.Y. A total of 20 dogs, 1 to 5 years old, 6.8 to 15.6 kg body weight, were used in these experiments. The dogs were conditioned to a 12 hour light/dark cycle and maintained on a feeding restriction of 1 hour per day access to food (Richman Standard Certified Canine Diet #5007, PMI Nutrition, Inc., St. Louis Mo.) from 7 to 8 AM. They were trained to eat a special meal promptly within 20 minutes when presented (1 can. 397 g, Evanger's 100% Beef for Dogs, Evanger's Dog and Cat Food Co., Inc., Wheeling Ill., mixed with 50 g of sharp cheddar cheese.).
SBA was measured by an enzymatic assay. SBA values are expressed as μg of total bile acids/ml of serum.
To estimate the details of this plateau, 6 dogs were given a test meal and blood samples for SBA measurement were collected at −30, 0, 30, 60, 65, 70, 80, 90, 120, 180, 240, 360, 480, 720, 1410 and 1440 minutes from the time of feeding. Any remaining food was removed 20 min after it was first presented to the dogs. To establish a method for extending the elevated plateau of SBA, 6 dogs were given the meal at 0 hr and an additional ½ size meal again 4 hr after their first meal. Blood samples were taken at 0, 1, 2, 3, 4, 4.5, 6, 7 and 8 hr. The curves for SBA level vs time obtained in these experiments were used as references for determining blood sampling times in experiments with LUM001. Wherever possible, experimental design permitting, in experiments with test compound, each dog served as its own simultaneous control, and the mean 1 hr SBA value served as the reference to which all other mean values were compared.
LUM001 was administered at 0, 0.01, 0.05, 0.2 and 1 mg/kg, p.o. to dogs, n=6, 1 hr after feeding the standard experimental meal. Blood samples for SBA measurement were taken at −30, 0, 30, 60, 65, 70, 80, 90, 120 and 180 minutes from the time of feeding. Each dog served as its own control, and mean SBA levels were compared to the mean SBA level at 60 minutes.

[2] = Toxicokinetics of LUM001 free form, 13-week oral gavage toxicity study in rats; type: in vivo; settings: for AUC(0-t) / Cmax / Tmax: rat, plasma, oral; for AUC(0-t): read-out: AUC(0-24 h)
Experimental: Charles River CD IGS rats were assigned to treatment groups (9sex/toxicokinetic group) and were administered daily doses of 0, 5, 30, 75, and 150 mg/kg (males) or 0, 5, 30, 150, and 500 mg/kg (females). LUM001 was administered by once daily oral gavage in distilled water and fresh dosing solutions were prepared weekly. All animals were dosed with 10 mL/kg/day based on the most recently determined body weights. On Day 1 and during Week 12, approximately 1 mL of venous blood was collected in heparinized tubes from the retro-orbital venous plexus. Animals were anesthetized with CO2-O2 and blood samples were collected at 1, 2, 3, 5, 8, and 24 hours post-dose. Survival permitting, the first 3 animals/sex dose group were bled at 1 and 5 hours post-dose, the second 3 animals/sex/dose group were bled at 2 and 8 hours post-dose, and the last 3 animals/sex/dose group were bled at 3 and 24 hours post-dose. Blood collection tubes were kept on ice during the collection period after which they were centrifuged and the plasma was harvested within approximately 60 minutes of blood collection. Plasma samples were stored at approximately −20° C. or lower until analyzed.
The concentration of LUM001 free form in plasma were determined using an LCMSMS method. The assay sensitivity was 4.75 ng/mL. Means and standard errors of the means (SEM) were calculated for plasma concentrations at each time point. Mean values are significant to three figures and SEM values are significant to the same decimal place as the corresponding mean. Concentration values less than the assay sensitivity (4.75 ng LUM001 free form/mL) were reported as zero. The observed peak plasma concentrations (Cmax) of LUM001 free form, time to reach peak plasma concentration (Tmax) and areas under the plasma concentration-time curve (AUC0-24) were calculated by the TOXAUC computer program (1). For calculation purposes the 0 hr plasma concentrations were set to zero on Day 1 and to the concentrations at 24 hr post dose on Day 78. The TK parameters were calculated from mean data for each group of rats. The bioavailability (% BA) of LUM001 after oral administration of LUM001 was calculated according to the equation below:
% BA=[AUC oral (0-8)/AUC IV(0-8)/Dose oral/Dose IV]×100

[3] = test system: Aspartate Aminotransferase (ASAT); assay: Plasma aspartate aminotransferase in ZDF rats, week 3; type: in vivo; settings: twice daily oral gavage
[4] = both sexes, CD IGS, Day 1, 150 mg/kg, Comb
[5] = both sexes, Charles River CD IGS, Day 78, 30.0 mg/kg, Comb
[6] = both sexes, Charles River CD IGS, Day 78, 150 mg/kg, Comb
[7] = female, CD IGS, Day 1, 150 mg/kg, F
[8] = female, CD IGS, Day 1, 500 mg/kg, F
[9] = female, Charles River CD IGS, Day 78, 30.0 mg/kg, F
[10] = female, Charles River CD IGS, Day 78, 150 mg/kg, F
[11] = female, Charles River CD IGS, Day 78, 500 mg/kg, F
[12] = male, CD IGS, Day 1, 30.0 mg/kg, M
[13] = male, CD IGS, Day 1, 75.0 mg/kg, M
[14] = male, CD IGS, Day 1, 150 mg/kg, M
[15] = male, Charles River CD IGS, Day 78, 5.0 mg/kg, M
[16] = male, Charles River CD IGS, Day 78, 30.0 mg/kg, M
[17] = male, Charles River CD IGS, Day 78, 75.0 mg/kg, M
[18] = male, Charles River CD IGS, Day 78, 150 mg/kg, M

CCCCC1(CCCC)CS(=O)(=O)c2ccc(N(C)C)cc2[C@@H](c2ccc(OCc3ccc(C[N+]45CCN(CC4)CC5)cc3)cc2)[C@H]1O [LUM001]
Time to significantly lowered SBA levels after dosing ([1]; 0.05 mg/kg orally 1 hour after feeding): 1 to 2 h | Serum bile acids, mean ([1]; 0.05 mg/kg p.o. at 60 min, 120 min): 6.5* μg/ml | Serum bile acids, mean ([1]; 0.05 mg/kg p.o. at 60 min, −30 min): 1.4 µg/mL | Serum bile acids, mean ([1]; 0.2 mg/kg p.o. at 60 min, 30 min): 9.1 µg/mL | Onset time to significant SBA lowering ([1]; 1 mg/kg vs ED50 dose 0.2 mg/kg): did not shorten the onset time | Threshold dose, dog SBA model ([1]; administered orally 1 hour after feeding): 0.05 mg/kg | BA ([2]; Day 1, 5.0 mg/kg, F): <0.1% | BA ([2]; Day 1, 5.0 mg/kg, M): <0.1% | BA ([2]; Day 1, 30.0 mg/kg, F): <0.1% | BA ([2]; Day 1, 75.0 mg/kg, M): <0.1% | BA ([2]; Day 1, 150 mg/kg, Comb): <0.1% | BA ([2]; Day 1, 500 mg/kg, F): <0.1% | BA ([2]; Day 78, 5.0 mg/kg, F): <0.1% | BA ([2]; Day 78, 30.0 mg/kg, Comb): <0.1% | BA ([2]; Day 78, 75.0 mg/kg, M): <0.1% | BA ([2]; Day 78, 150 mg/kg, Comb): <0.1% | BA ([2]; Day 78, 500 mg/kg, F): <0.1% | AUC(0-t) ([2]; both sexes, CD IGS, 150 mg/kg, Day 1, 150 mg/kg, Comb): 101 ng·h/mL | Cmax [2, 4]: 37.3 ng/mL | Tmax [2, 4]: 2 h | AUC(0-t) ([2]; both sexes, Charles River CD IGS, 30 mg/kg, Day 78, 30.0 mg/kg, Comb): 11.7 ng·h/mL | AUC(0-t) ([2]; both sexes, Charles River CD IGS, 150 mg/kg, Day 78, 150 mg/kg, Comb): 132 ng·h/mL | Cmax [2, 5]: 4.35 ng/mL | Tmax [2, 5]: 3 h | Cmax [2, 6]: 24.1 ng/mL | Tmax [2, 6]: 1 h | AUC(0-t) ([2]; female, CD IGS, 150 mg/kg, Day 1, 150 mg/kg, F): 106 ng·h/mL | Cmax [2, 7]: 42.4 ng/mL | Tmax [2, 7]: 2 h | Cmax [2, 8]: 9.99 ng/mL | Tmax [2, 8]: 3 h | AUC(0-t) ([2]; female, Charles River CD IGS, 30 mg/kg, Day 78, 30.0 mg/kg, F): 12.4 ng·h/mL | AUC(0-t) ([2]; female, Charles River CD IGS, 150 mg/kg, Day 78, 150 mg/kg, F): 124 ng·h/mL | AUC(0-t) ([2]; female, Charles River CD IGS, 500 mg/kg, Day 1, 500 mg/kg, F): 90.8 ng·h/mL | AUC(0-t) ([2]; female, Charles River CD IGS, 500 mg/kg, Day 78, 500 mg/kg, F): 470 ng·h/mL | Cmax [2, 9]: 3.95 ng/mL | Tmax [2, 9]: 3 h | Cmax [2, 10]: 22.2 ng/mL | Tmax [2, 10]: 2 h | Cmax [2, 11]: 62.9 ng/mL | Tmax [2, 11]: 3 h | AUC(0-t) ([2]; male, CD IGS, 30 mg/kg, Day 1, 30.0 mg/kg, M): 15.1 ng·h/mL | AUC(0-t) ([2]; male, CD IGS, 75 mg/kg, Day 1, 75.0 mg/kg, M): 6.37 ng·h/mL | AUC(0-t) ([2]; male, CD IGS, 150 mg/kg, Day 1, 150 mg/kg, M): 96.3 ng·h/mL | Cmax [2, 12]: 8.59 ng/mL | Tmax [2, 12]: 2 h | Cmax [2, 13]: 2.55 ng/mL | Tmax [2, 13]: 5 h | Cmax [2, 14]: 32.1 ng/mL | Tmax [2, 14]: 3 h | AUC(0-t) ([2]; male, Charles River CD IGS, 5 mg/kg, Day 78, 5.0 mg/kg, M): 11.1 ng·h/mL | AUC(0-t) ([2]; male, Charles River CD IGS, 30 mg/kg, Day 78, 30.0 mg/kg, M): 11.4 ng·h/mL | AUC(0-t) ([2]; male, Charles River CD IGS, 75 mg/kg, Day 78, 75.0 mg/kg, M): 61.4 ng·h/mL | AUC(0-t) ([2]; male, Charles River CD IGS, 150 mg/kg, Day 78, 150 mg/kg, M): 141 ng·h/mL | Cmax [2, 15]: 5.8 ng/mL | Tmax [2, 15]: 2 h | Cmax [2, 16]: 4.75 ng/mL | Tmax [2, 16]: 3 h | Cmax [2, 17]: 5.71 ng/mL | Tmax [2, 17]: 8 h | Cmax [2, 18]: 28.3 ng/mL | Tmax [2, 18]: 1 h

CCCC[C@]1(CC)CS(=O)(=O)c2ccc(N(C)C)cc2[C@@H](c2cccc(NC(=O)N[C@@H]3O[C@H](COS(=O)(=O)[O-])[C@@H](O)[C@H](OCc4ccccc4)[C@H]3O)c2)[C@H]1O.CCO.O.[K+] [LUM002, potassium((2R,3R,4S,5R,6R)-4-benzyloxy-6-{3-[3-((3S,4R,5R)-3-butyl-7-dimethylamino-3-ethyl-4-hydroxy-1,1-dioxo-2,3,4,5-tetrahydro-1H-benzo[b]thiepin-5-yl)-phenyl]-ureido}-3,5-dihydroxy-tetrahydro-pyran-2-ylmethyl)sulphate ethanolate, hydrate]
Plasma aspartate aminotransferase (ASAT) [3]: statistically significant reduction in ASAT
